Legend:
[1] = test system: PD patients with chronic constipation; assay: Open-label pilot study of GlcNAc (Villicote) on motor and constipation symptoms in Parkinson's Disease; type: in vivo, human
Description: Participants were enlisted in a movement disorders outpatient clinic in Toronto, Canada. Inclusion criteria were a diagnosis of PD according to UK PD society brain bank criteria and chronic constipation that was not improved by laxatives. Exclusion criteria were the co-occurrence of conditions biasing results and/or changes of medications (including anti-constipation drugs).
This was an open-label study that sought to evaluate the efficacy of GlcNAc (Villicote®, Wellesley Therapeutics Inc.) on PD patients with chronic constipation who have previously used laxatives to relieve symptoms of constipation, to little or no avail. […] The self-reported assessments evaluated motor condition and dysfunction (fluctuation and dyskinesia) using section IV of the Unified Parkinson's Disease Rating Scale (UPDRS IV) and asking about presence and frequency of delayed onset (Delayed ON) and Failure of “on” response (no ON); Perceived severity and improvement in of motor dysfunction, and constipation by means of both Patients' Global Impression-Severity (PGI-S) and Patients' Global Impressions of Change (PGI-C) scale accordingly. Severity of Constipation was also evaluated by means of questions 5 and 6 of SCOPA-AUT [17] and the Constipation Scoring System (CSS). In addition, side-effects experienced while on Villicote and qualitative feedback on the product was noted.
Their age and disease duration was 65.7±7.5 and 11.7±5.1 years, respectively. Mean UPDRS-III at study entry was 22.1±10.9.

[2] = cited from earlier work
[3] = test system: pediatric treatment-resistant inflammatory bowel disease (Crohn's disease and ulcerative colitis patients); settings: oral administration; reduced symptoms of gut inflammation, increased sulphated GAG expression; cited from earlier work
[4] = PD patients treated with GlcNAc
[5] = PD patients treated with GlcNAc, motor fluctuations

SMILES: CC(=O)N[C@H]1C(O)O[C@H](CO)[C@@H](O)[C@@H]1O (some centres unmarked) [GlcNAc, N-acetylglucosamine]
- No-ON ([1]; After GlcNAc, 1 month time point, PD patients, before GlcNAc 0.0): 0.0
- Delayed-ON ([1]; After GlcNAc, 1 month time point, PD patients, before GlcNAc 0.1 ± 0.4): 0.1 ± 0.4
- SCOPA-AUT (questions 5 and 6) ([1]; After GlcNAc, 1 month time point, PD patients, before GlcNAc 3.9 ± 1.9): 3.1 ± 1.7
- UPDRS-IV ([1]; After GlcNAc, 1 month time point, PD patients, before GlcNAc 3.9 ± 2.4): 3.9 ± 2.4
- CSS (Constipation Scoring System) ([1]; After GlcNAc, 1 month time point, PD patients, before GlcNAc 9.4 ± 6.1, Wilcoxon Z=−2.043, P=0.041): 6.5 ± 3.9
- tolerability ([1]; PD patients): well-tolerated
- anti-constipation effect ([1]; PD patients failing drugs for constipation): effective anti-constipation agent
- PGI-I Constipation [1, 4]: 1.6 ± 1.4
- PGI-S Constipation [1, 4]: 2.8 ± 1.3
- PGI-I Fluctuation [1, 5]: 0
- PGI-S Fluctuation [1, 5]: 0.8 ± 0.9
- effect on motor functions ([1]; PD patients, short follow-up): No effect was observed
- solubility in water [2]: 25%
- efficacy in pediatric treatment-resistant inflammatory bowel disease [3]: therapeutic efficacy

Reference: patent US10912788B2, “Methods and compositions for preventing and treating conditions related to alpha-synuclein” (PurePharm, Inc., priority 2018, dated 2021)
